Measurements taken from article PMC2753476 (Proteins, 2009).

Target: T1, glOTC (Giardia duodenalis, UniProt O76458)
T1 sequence (O76458 1-327): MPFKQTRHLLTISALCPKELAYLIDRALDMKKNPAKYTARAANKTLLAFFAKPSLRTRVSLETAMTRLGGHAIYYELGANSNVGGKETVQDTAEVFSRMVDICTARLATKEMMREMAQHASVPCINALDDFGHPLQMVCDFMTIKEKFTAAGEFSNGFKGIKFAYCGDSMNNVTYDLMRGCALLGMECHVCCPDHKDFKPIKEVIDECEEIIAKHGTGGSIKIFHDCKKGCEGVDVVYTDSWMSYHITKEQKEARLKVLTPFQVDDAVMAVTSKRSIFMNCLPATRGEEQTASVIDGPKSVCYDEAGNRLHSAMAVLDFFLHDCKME
Assay: coupled spectrophotometric assay at […] nm
Format: biochemical

N[C@@H](CCCNC(=O)CP(=O)(O)O)C(=O)O [PALO, N-phosphonoacetyl-L-ornthine]
Ki: 25 ± 9 nM
